Measured values from patent US20240376056A1, “PHENYL ACETAMIDE BASED IL-17A MODULATORS AND USES THEREOF” (DiCE Alpha, Inc., priority 2021, published 2024).

Molecular target: T1, IL-17A/A (Homo sapiens, UniProt Q16552)
T1 construct: purchased Genscript Z03228
T1 sequence (Q16552 24-155): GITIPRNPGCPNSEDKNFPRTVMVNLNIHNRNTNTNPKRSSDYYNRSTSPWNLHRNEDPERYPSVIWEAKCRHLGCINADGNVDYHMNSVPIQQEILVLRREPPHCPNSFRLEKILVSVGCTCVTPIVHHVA
Assay: HEK-Blue IL-17A/A inhibition assay (SEAP reporter)
Format: cell-based
Settings: HEK-Blue cells (HEK 293 expressing IL-17RA, IL-17RC, Act1); IL-17A/A stimulation; 20 hours; SEAP read at A630; 4-parameter fit
How it was run: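 HEK 293 cells engineered with IL-17RA, IL-17RC and Act1 (NFκB-driven SEAP) given titrated compound (top final 10, 1 or 0.3 uM; 0.1% DMSO) just before IL-17A/A, then incubated 20 h. SEAP in media developed with Quanti-Blue, read at A630; IC50 by 4-parameter nonlinear fit.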

| SMILES | IC50 [µM] |
| --- | --- |
| CCc1nocc1C(=O)N[C@H](C(=O)Nc1ccc([C@H](C)C(=O)N(C)CC(F)(F)F)cc1F)C(C1CC1)C1CC1 [Compound 80, N-((S)-1,1-dicyclopropyl-3-((2-fluoro-4-((S)-1-(methyl(2,2,2-trifluoroethyl)amino)-1-oxopropan-2-yl)phenyl)amino)-3-oxopropan-2-yl)-3-ethylisoxazole-4-carboxamide] | < 0.1 |
| CC(C)n1nccc1C(=O)N[C@H](C(=O)Nc1ccc([C@H](C)C(=O)NCC(F)(F)F)cc1F)C(C1CC1)C1CC1 [Compound 82, N-((S)-1,1-dicyclopropyl-3-((2-fluoro-4-((S)-1-oxo-1-((2,2,2-trifluoroethyl)amino)propan-2-yl)phenyl)amino)-3-oxopropan-2-yl)-1-isopropyl-1H-pyrazole-5-carboxamide] | < 0.1 |
| CCn1ncc(F)c1C(=O)N[C@H](C(=O)Nc1ccc([C@H](C)C(=O)NCC(F)(F)F)cc1F)C(C1CC1)C1CC1 [Compound 83, N-((S)-1,1-dicyclopropyl-3-((2-fluoro-4-((S)-1-oxo-1-((2,2,2-trifluoroethyl)amino)propan-2-yl)phenyl)amino)-3-oxopropan-2-yl)-1-ethyl-4-fluoro-1H-pyrazole-5-carboxamide] | > 1 |
| CCc1nocc1C(=O)N[C@H](C(=O)Nc1ccc([C@H](C)C(=O)NCC(F)(F)F)cc1F)C(C1CC1)C1CC1 [Compound 84, N-((S)-1,1-dicyclopropyl-3-((2-fluoro-4-((S)-1-oxo-1-((2,2,2-trifluoroethyl)amino)propan-2-yl)phenyl)amino)-3-oxopropan-2-yl)-3-ethylisoxazole-4-carboxamide] | < 0.1 |
| CC[C@@H](c1ccc(F)cc1)[C@H](NC(=O)c1ccnn1CC)C(=O)Nc1ccc([C@H](C)C(=O)N(C)CC(F)(F)F)cc1F [Compound 85, -ethyl-N-((2S,3S)-1-((2-fluoro-4-((S)-1-(methyl(2,2,2-trifluoroethyl)amino)-1-oxopropan-2-yl)phenyl)amino)-3-(4-fluorophenyl)-1-oxopentan-2-yl)-1H-pyrazole-5-carboxamide] | 0.1 to 1 |
| CCn1nccc1C(=O)N[C@H](C(=O)Nc1ccc([C@H](C)C(=O)NCC(F)(F)F)cc1F)C(C1CCC1)C1CCC1 [Compound 88, N-((S)-1,1-dicyclobutyl-3-((2-fluoro-4-((S)-1-oxo-1-((2,2,2-trifluoroethyl)amino)propan-2-yl)phenyl)amino)-3-oxopropan-2-yl)-1-ethyl-1H-pyrazole-5-carboxamide] | 0.1 to 1 |
| C[C@H](C(=O)NCC(F)(F)F)c1ccc(NC(=O)[C@@H](NC(=O)c2ccnn2CCN2CCOCC2)C(C2CC2)C2CC2)c(F)c1 [Compound 89, N-((S)-1,1-dicyclopropyl-3-((2-fluoro-4-((S)-1-oxo-1-((2,2,2-trifluoroethyl)amino)propan-2-yl)phenyl)amino)-3-oxopropan-2-yl)-1-(2-morpholinoethyl)-1H-pyrazole-5-carboxamide] | 0.1 to 1 |
| CCn1nccc1C(=O)N[C@H](C(=O)Nc1ccc([C@H](C)C(=O)N(C)CC(F)(F)F)cc1F)[C@H]1CCc2ccccc21 [Compound 90, N-((S)-1-((S)-2,3-dihydro-1H-inden-1-yl)-2-((2-fluoro-4-((S)-1-(methyl(2,2,2-trifluoroethyl)amino)-1-oxopropan-2-yl)phenyl)amino)-2-oxoethyl)-1-ethyl-1H-pyrazole-5-carboxamide] | 0.1 to 1 |
| CCn1nccc1C(=O)N[C@H](C(=O)Nc1ccc([C@H](C)C(=O)N(C)CC(F)(F)F)cc1F)[C@@H]1CCc2ccccc21 [Compound 91, N-((S)-1-((R)-2,3-dihydro-1H-inden-1-yl)-2-((2-fluoro-4-((S)-1-(methyl(2,2,2-trifluoroethyl)amino)-1-oxopropan-2-yl)phenyl)amino)-2-oxoethyl)-1-ethyl-1H-pyrazole-5-carboxamide] | > 1 |
| C[C@H](C(=O)NCC(F)(F)F)c1ccc(NC(=O)[C@@H](NC(=O)c2ccnn2CCN2CC(F)(F)C2)C(C2CC2)C2CC2)c(F)c1 [Compound 94, N-((S)-1.1-dicyclopropyl-3-((2-fluoro-4-((S)-1-oxo-1-((2,2,2-trifluoroethyl)amino)propan-2-yl)phenyl)amino)-3-oxopropan-2-yl)-1-(2-(3,3-difluoroazetidin-1-yl)ethyl)-1H-pyrazole-5-carboxamide] | 0.1 to 1 |
| C[C@H](C(=O)NCC(F)(F)F)c1ccc(NC(=O)[C@@H](NC(=O)c2ccnn2CCn2ccnc2)C(C2CC2)C2CC2)c(F)c1 [Compound 95, -(2-(1H-imidazol-1-yl)ethyl)-N-((S)-1,1-dicyclopropyl-3-((2-fluoro-4-((S)-1-oxo-1-((2,2,2-trifluoroethyl)amino)propan-2-yl)phenyl)amino)-3-oxopropan-2-yl)-1H-pyrazole-5-carboxamide] | 0.1 to 1 |

The remaining lines, values ahead:

| IC50 [µM] | SMILES |
| --- | --- |
| > 1 | CC(C)n1nccc1C(=O)N[C@H](C(=O)Nc1ccc([C@H](C)C(=O)NCC(F)(F)CN)cc1F)C(C1CC1)C1CC1 [Compound 100, N-((S)-1-((4-((S)-1-((3-amino-2,2-difluoropropyl)amino)-1-oxopropan-2-yl)-2-fluorophenyl)amino)-3,3-dicyclopropyl-1-oxopropan-2-yl)-1-isopropyl-1H-pyrazole-5-carboxamide] |
| > 1 | CC(C)n1nccc1C(=O)N[C@H](C(=O)Nc1ccc([C@H](C)C(=O)N2CCNCC2C(F)(F)F)cc1F)C(C1CC1)C1CC1 (stereo partly drawn) [Compound 101, N-((2S)-1,1-dicyclopropyl-3-((2-fluoro-4-((2S)-1-oxo-1-(2-(trifluoromethyl)piperazin-1-yl)propan-2-yl)phenyl)amino)-3-oxopropan-2-yl)-1-isopropyl-1 H-pyrazole-5-carboxamide] |
| > 1 | C[C@H](C(=O)N(C)CC(F)(F)F)c1ccc(NC(=O)[C@@H](Nc2nccn3nccc23)C(C2CC2)C2CC2)c(F)c1 [Compound 106, (S)-3,3-dicyclopropyl-N-(2-fluoro-4-((S)-1-(methyl(2,2,2-trifluoroethyl)amino)-1-oxopropan-2-yl)phenyl)-2-(pyrazolo[1,5-a]pyrazin-4-ylamino)propenamide] |
| 0.1 to 1 | CC(C)n1nccc1C(=O)N[C@H](C(=O)Nc1ccc(C(C)(C)C(=O)NCC(F)(F)F)cc1F)C(C1CC1)C1CC1 [Compound 107, (S)-N-(1.1-dicyclopropyl-3-((2-fluoro-4-(2-methyl-1-oxo-1-((2,2,2-trifluoroethyl)amino)propan-2-yl)phenyl)amino)-3-oxopropan-2-yl)-1-isopropyl-1H-pyrazole-5-carboxamide] |
| < 0.1 | CCc1cc(NC(=O)[C@@H](NC(=O)c2ccnn2C(C)C)C(C2CC2)C2CC2)c(F)cc1[C@H](C)C(=O)NCC(F)(F)F [Compound 111, N-((S)-1,1-dicyclopropyl-3-((5-ethyl-2-fluoro-4-((S)-1-oxo-1-((2,2,2-trifluoroethyl)amino)propan-2-yl)phenyl)amino)-3-oxopropan-2-yl)-1-isopropyl-1H-pyrazole-5-carboxamide] |
| 0.1 to 1 | CCc1cc(NC(=O)[C@@H](NC(=O)c2ccnn2C(C)C)C(C2CC2)C2CC2)c(F)cc1[C@@H](C)C(=O)NCC(F)(F)F [Compound 112, N-((S)-1,1-dicyclopropyl-3-((5-ethyl-2-fluoro-4-((R)-1-oxo-1-((2,2,2-trifluoroethyl)amino)propan-2-yl)phenyl)amino)-3-oxopropan-2-yl)-1-isopropyl-1H-pyrazole-5-carboxamide] |
